These are literature values, as cited in patent US20080268066A1, “Synergistic Formulation for Preventing and/or Treating Diabetes” (priority 2005, published 2008).

Counter-ions that a name gives are not always drawn. Like-named read-outs stand apart in the source and are kept apart here.

Series [1] has as its system women of polycystic ovary syndrome (PCOS). The conditions noted are these: daily dose of 1500 mg, 8 weeks later, about 20 women.
For series [2] the following is noted: intravenous 600 mg, 5 times, after two weeks; control group 2 points.
In series [3] the test system is babies of mothers with diabetes / embryos in similar glucose concentration. The conditions noted are these: 71%-88% without.
A further series deals with homocysteine. The conditions noted are these: human, in vivo.
Series [4] has as its system acute medicamentous kidney lesion.
The test system of series [5] is patients with retinal degeneration. The conditions noted are these: among 16 patients; supplement every day for 6 months or more.
The test system of another series is prostate cancer. The conditions noted are these: fraction.

`CN(C)C(=N)N=C(N)N` [Metformin HCl]: the “women whose menstruation recovered to a normal level” value in series [1] is on record as 86.7%.
As for `O=C(O)CCCCC1CCSS1` (stereo not drawn) [alpha_lipoic acid], the “decrease of the feeling of pain” value in series [2] is given as 6 points.
With `Nc1nc2ncc(CNc3ccc(C(=O)N[C@@H](CCC(=O)O)C(=O)O)cc3)nc2c(=O)[nH]1` [folic acid], the entries for the “probability of babies' aplasia” value in series [3] (embryos in similar glucose concentration with folic acid) and in series [3] (pregnant animals fed with folic acid) were 5% and 3%, respectively. Also, the “decrease of the level of homocysteine” value in the series with homocysteine was 25%.
`N[C@@H](CCC(=O)N[C@@H](CS)C(=O)NCC(=O)O)C(=O)O` [glutathione, L-glutamic acid-L-cysteine-glycine]: the “total effectiveness on blood urine” value in series [4] (P<0.01) was 89%. In series [4] (P<0.05), the total effectiveness is recorded as 92% and the “total effectiveness on proteinuria” value is reported as 57%.
Take `CC1=C[C@H](O)CC(C)(C)[C@H]1/C=C/C(C)=C/C=C/C(C)=C/C=C/C=C(C)/C=C/C=C(C)/C=C/C1=C(C)C[C@@H](O)CC1(C)C` [lutein]: the “patients whose vision was apparently improved” value in series [5] is on record as 12 patients.
For `CC(C)=CCC/C(C)=C/C=C/C(C)=C/C=C/C(C)=C/C=C/C=C(C)/C=C/C=C(C)/C=C/C=C(\C)CCC=C(C)C` [lycopene], the “patients in whom cancer cells proliferation were stopped” value in the series on prostatic carcinoma (human, in vivo) is on record as 44%. In addition, the “patients with size of the tumor not over 4 dm^3” value in the series on prostatic carcinoma (taken 3 weeks before the operation, 55% without) was 85%.
As to `[Se]` [selenium], in the series with prostate cancer, the “decrease of the occurrence of prostate cancer” value was “½-⅓”.
